SMILES strings stand for the structures.

A word on the melting point: it is the temperature, or range, at which the solid turns liquid.

Compound `CCc1ccc(Cc2ccncc2O[C@@H]2S[C@H](CO)[C@@H](O)[C@H](O)[C@H]2O)cc1` [Compound 20, 4′-(4′-ethylbenzyl)pyridin-3′-yl 5-thio-β-D-glucopyranoside] yielded a melting point of 184 to 187 °C.

Turning to `CCOC(=O)OC[C@H]1S[C@@H](Oc2nn(C(=O)OCC)c(C)c2Cc2ccc(OC)cc2)[C@H](O)[C@@H](O)[C@@H]1O` [Compound 8, 1′-ethoxycarbonyl-4′-[(4′-methoxyphenyl)methyl]-5′-methyl-pyrazol-3′-yl 6-O-ethoxycarbonyl-5-thio-β-D-glucopyranoside], the melting point is 106 to 110 °C.

Compound `CCc1ccc(Cc2nccnc2O[C@@H]2S[C@H](CO)[C@@H](O)[C@H](O)[C@H]2O)cc1` [Compound 23, 3′-(4′-ethylbenzyl)-1′H-pyrazin-2′-yl 5-thio-β-D-glucopyranoside] displayed a melting point of 181 to 183.5 °C.

The compound `CCc1ccc(Cc2c(O[C@@H]3S[C@H](CO)[C@@H](O)[C@H](O)[C@H]3O)nn(C(C)C)c2C)cc1` [Compound 1, 4′-(4′-ethylbenzyl)-1′-isopropyl-5′-methyl-1′H-pyrazol-3′-yl 5-thio-β-D-glucopyranoside] had a melting point of 54 to 58.5 °C. Consider `COc1ccc(Cc2c(O[C@@H]3S[C@H](CO)[C@@H](O)[C@H](O)[C@H]3O)n[nH]c2C)cc1F` [Compound 4, 4′-[(3′-fluoro-4′-methoxyphenyl)methyl]-5′-methyl-1′H-pyrazol-3′-yl 5-thio-β-D-glucopyranoside], for which the melting point is 145 to 147 °C. For the compound `OCCc1ccc(Cc2ccncc2O[C@@H]2S[C@H](CO)[C@@H](O)[C@H](O)[C@H]2O)cc1` [Compound 32, 4′-[4′-(2′-hydroxyethyl)benzyl]pyridin-3′-yl 5-thio-β-D-glucopyranoside], the melting point was 194.5 to 195 °C. With `CCc1ccc(Cc2c(C)nc(C)nc2O[C@@H]2S[C@H](CO)[C@@H](O)[C@H](O)[C@H]2O)cc1` [Compound 24, 5′-(ethylbenzyl)-2′,6′-dimethyl-3′H-pyrimidin-4′-yl 5-thio-β-D-glucopyranoside], the melting point was 143 to 147.5 °C.

Values taken from patent US7439232B2, “Heteroaryl 5-thio-β-D-glucopyranoside derivatives and therapeutic agents for diabetes containing the same” (Taisho Pharmaceutical Co., Ltd., priority 2003, dated 2008).
